Reference: ChEMBL document CHEMBL1128132, “Ace inhibitors as a template for the design of bradykinin B2 receptor antagonists” (Bioorg Med Chem Lett, 1995)
pKi: −log10 of the molar value.

biological target: T1, B2 bradykinin receptor (Homo sapiens, UniProt P30411); assay: Tested for binding affinity against human IMR-90 Bradykinin receptor B2
T1 sequence (P30411 whole entry): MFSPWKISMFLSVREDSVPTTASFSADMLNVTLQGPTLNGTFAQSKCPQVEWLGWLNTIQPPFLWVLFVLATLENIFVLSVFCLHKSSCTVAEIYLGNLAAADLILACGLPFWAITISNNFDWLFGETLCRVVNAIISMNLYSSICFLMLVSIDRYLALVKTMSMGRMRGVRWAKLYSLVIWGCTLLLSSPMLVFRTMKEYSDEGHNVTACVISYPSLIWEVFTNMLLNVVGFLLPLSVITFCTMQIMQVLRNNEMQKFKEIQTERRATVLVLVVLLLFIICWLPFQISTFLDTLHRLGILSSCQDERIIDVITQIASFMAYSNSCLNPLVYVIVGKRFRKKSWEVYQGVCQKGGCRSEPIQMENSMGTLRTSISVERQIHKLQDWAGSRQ

pKi	Structure (SMILES)
5.00	CCCC[P+](CCCC)(CCCC)Cc1ccc(NC(=O)C2Cc3ccccc3CN2C(=O)CCCc2ccccc2)cc1 (stereo not drawn)
5.10	CCCC[P+](CCCC)(CCCC)Cc1ccc(NC(=O)C2Cc3ccccc3CN2C(=O)C(CCc2ccccc2)NC(=O)OC(C)(C)C)cc1 (stereo not drawn)

biological target: T2, B2 bradykinin receptor (Homo sapiens) (UniProt P30411); assay: Tested for percent inhibition of binding affinity against Bradykinin receptor B2 at 10 uM concentration
T2 sequence (whole entry): T1 sequence (P30411 whole entry)

Structure (SMILES)	inhibition [%]
O=C(Nc1ccc(CN/C(=N/C2CCCCC2)NC2CCCCC2)cc1)C1Cc2ccccc2CN1C(=O)CN/C(=N/C1CCCCC1)NC1CCCCC1 (stereo not drawn)	12
CCCC[P+](CCCC)(CCCC)Cc1ccc(NC(=O)C2Cc3ccccc3CN2C(=O)CCCc2ccccc2)cc1 (stereo not drawn)	> 50
CCCC[PH](CCCC)(CCCC)Cc1ccc(NC(=O)C2Cc3ccccc3CN2C(=O)[C@@H](N)CCc2ccccc2)cc1 (single isomer, unassigned; diastereomer 1)	26
CCCC[PH](CCCC)(CCCC)Cc1ccc(NC(=O)C2Cc3ccccc3CN2C(=O)CN)cc1 (stereo not drawn)	36
CCCC[PH](CCCC)(CCCC)Cc1ccc(NC(=O)C2Cc3ccccc3CN2C(=O)[C@@H](N)CCc2ccccc2)cc1 (single isomer, unassigned; diastereomer 2)	26
CCCC[P+](CCCC)(CCCC)Cc1ccc(NC(=O)C2Cc3ccccc3CN2C(=O)C(CCc2ccccc2)NC(=O)OC(C)(C)C)cc1 (stereo not drawn)	> 50
CCCC[P+](CCCC)(CCCC)Cc1ccc(NC(=O)C2Cc3ccccc3CN2C(=O)CNC(=O)OC(C)(C)C)cc1 (stereo not drawn)	18

Further lines, results first:

inhibition [%]	Structure (SMILES)
34	CCCC[PH](CCCC)(CCCC)Cc1ccc(NC(=O)C2Cc3ccccc3CN2/C(=N/C2CCCCC2)NC2CCCCC2)cc1 (stereo not drawn)
> 50	CCCC[PH](CCCC)(CCCC)Cc1ccc(NC(=O)C2Cc3ccccc3CN2C(=O)[C@H](CCc2ccccc2)N/C(=N/C2CCCCC2)NC2CCCCC2)cc1 (single isomer, unassigned; diastereomer 2)
33	CCCC[PH](CCCC)(CCCC)Cc1ccc(NC(=O)C2Cc3ccccc3CN2C(=O)CN/C(=N/C2CCCCC2)NC2CCCCC2)cc1 (stereo not drawn)
> 50	CCCC[PH](CCCC)(CCCC)Cc1ccc(NC(=O)C2Cc3ccccc3CN2C(=O)[C@H](CCc2ccccc2)N/C(=N/C2CCCCC2)NC2CCCCC2)cc1 (single isomer, unassigned; diastereomer 1)
